{"source": "patent US11504395B2", "about": "“Oral pyrophosphate for use in reducing tissue calcification” (Stichting Het Nederlands Kanker Instituut-Antoni van …, priority 2016, dated 2022)", "key": {"Abcc6−/− mice": {"system": "Abcc6−/− mice", "experimental": "The calcium content of heart tissue was determined.\n(§1) All animals were housed in approved animal facilities at the Research Center for Natural Sciences, Hungarian Academy of Sciences. Mice were kept under routine laboratory conditions with 12 hour light-dark cycle with ad libitum access to water and chow. The RCNS, Hungarian Academy of Sciences Institutional Animal Care and Use Committees approved this study. Experiments have been conducted according to national guidelines. Cryo injury was performed and tissue calcium content was determined as described by Brampton, et al. ((2014) Am J Pathol. 184, 159-70). Calcification of the vibrissae was studied by histochemistry following the method described Klement, et al. ((2005) Mol Cell Biol. 25, 8299-310. The number of calcified vibrissae (hair capsules) was counted independently and the onset of tiptoe walking phenotype was determined by two investigators in a blinded fashion.\nAbcc6^−/− mice faithfully recapitulate human PXE, with calcifying lesions found in skin, eyes and blood vessels. A drawback of the Abcc6^−/− mice is the relatively late onset of the first lesions, making this model less convenient for rapid screening of new treatments."}, "[1]": {"system": "Tiptoe walking (ttw) mice", "experimental": "as §1\nTiptoe walking (ttw) mice have an inactivating mutation in Enpp1 and represent a model for GACI."}}, "note": "Like-named read-outs stand apart in the source and are kept apart here.", "data": [{"smiles": "O.O.O.O.O.O.O.O.O.O.O=P([O-])([O-])OP(=O)([O-])[O-].[Na+].[Na+].[Na+].[Na+]", "note": "[PPi, Sodium pyrophosphate tetrabasic decahydrate]", "values": [{"measurement": "cardiac calcification (ICC) induced by cryo-injury", "setting": "Abcc6−/− mice; IP delivery, 6 mg PPi/kg body weight for 7 days, Abcc6−/− mice, data not shown", "value": "reduced"}, {"measurement": "PPi concentration giving maximal inhibition of ICC", "setting": "Abcc6−/− mice; PPi in drinking water, dose-dependent inhibition, FIG. 1", "value": 10, "unit": "mM"}, {"measurement": "calcification of the dermal sheet surrounding the vibrissae", "setting": "[1]; 10 mM oral PPi during pregnancy and lactation and continued in pups after weaning, ttw mice, FIG. 3", "value": "greatly reduced"}, {"measurement": "calcification of the dermal sheet surrounding the vibrissae", "setting": "[1]; PPi provided during lactation, ttw mice", "value": "no significant impact"}, {"measurement": "calcification of the dermal sheet surrounding the vibrissae", "setting": "[1]; ttw pups treated with PPi only after weaning", "value": "no different from the control-treated group"}]}]}
